Data as given in patent US7423159B2, “Agent for preventing or treating neuropathy” (Takeda Pharmaceutical Company Limited, priority 2002, dated 2008).

`CCc1nnc(Cc2ccc(NC(=O)/C=C/c3cnn(C)c3-c3ccc(F)cc3)cc2)o1` [Example 134, (2E)-N-{4-[(5-ethyl-1,3,4-oxadiazol-2-yl)methyl]phenyl}-3-[5-(4-fluorophenyl)-1-methyl-1H-pyrazol-4-yl]acrylamide] showed a melting point of 164 to 165 °C.

With `Cc1nnc(Cc2ccc(NC(=O)/C=C/c3cnn(C)c3-c3ccc(F)cc3)cc2)o1` [Example 136, (2E)-3-[5-(4-fluorophenyl)-1-methyl-1H-pyrazol-4-yl]-N-{4-[(5-methyl-1,3,4-oxadiazol-2-yl)methyl]phenyl}acrylamide] the melting point was 151 to 152 °C.

In the case of `Cn1ncc(/C=C/C(=O)Nc2ccc(CN)cc2)c1-c1ccc(F)cc1` [Example 137, (2E)-N-[4-(aminomethyl)phenyl]-3-[5-(4-fluorophenyl)-1-methyl-1H-pyrazol-4-yl]acrylamide], the melting point is reported as 201 to 202 °C.

With `CCC(=O)NCc1ccc(NC(=O)/C=C/c2cnn(C)c2-c2ccc(F)cc2)cc1` [Example 138, (2E)-3-[5-(4-fluorophenyl)-1-methyl-1H-pyrazol-4-yl]-N-{4-[(propionylamino)methyl]phenyl}acrylamide] the melting point was 271 to 272 °C.

With `CC(C)C(=O)NCc1ccc(NC(=O)/C=C/c2cnn(C)c2-c2ccc(F)cc2)cc1` [Example 139, (2E)-3-[5-(4-Fluorophenyl)-1-methyl-1H-pyrazol-4-yl]-N-{4-[(isobutyrylamino)methyl]phenyl}acrylamide] the melting point was 258 to 259 °C.

With `CC(C)CC(=O)NCc1ccc(NC(=O)/C=C/c2cnn(C)c2-c2ccc(F)cc2)cc1` [Example 141, (2E)-3-[5-(4-Fluorophenyl)-1-methyl-1H-pyrazol-4-yl]-N-(4-{[(3-methylbutanoyl)amino]methyl}phenyl)acrylamide] the melting point was 226 to 227 °C.

`Cn1ncc(/C=C/C(=O)Nc2ccc(CNC(=O)c3ccccc3)cc2)c1-c1ccc(F)cc1` [Example 142, N-[4-({(2E)-3-[5-(4-Fluorophenyl)-1-methyl-1H-pyrazol-4-yl]prop-2-enoyl}amino)benzyl]benzamide] gave a melting point of 250 to 251 °C.

With `CN(C)C(=O)Cc1ccc(NC(=O)/C=C/c2cnn(C)c2-c2ccc(F)cc2)cc1` [Example 143, (2E)-N-{4-[2-(dimethylamino)-2-oxoethyl]phenyl}-3-[5-(4-fluorophenyl)-1-methyl-1H-pyrazol-4-yl]acrylamide] the melting point was 209 to 210 °C.

In the case of `Cn1ncc(/C=C/C(=O)Nc2ccc(CO)cc2)c1-c1ccc(F)cc1` [Example 153, (2E)-3-[5-(4-Fluorophenyl)-1-methyl-1H-pyrazol-4-yl]-N-[4-(hydroxymethyl)phenyl]acrylamide], the melting point is reported as 117 to 118 °C.

`Cn1ncc(/C=C/C(=O)Nc2ccc(CN3C(=O)CNC3=O)cc2)c1-c1ccc(F)cc1` [Example 157, (2E)-N-{4-[(2,5-Dioxo-1-imidazolidinyl)methyl]phenyl}-3-[5-(4-fluorophenyl)-1-methyl-1H-pyrazol-4-yl]acrylamide] gave a melting point of 249 to 250 °C.

Work on `Cn1ncc(/C=C/C(=O)Nc2ccc(CN3C(=O)CCCC3=O)cc2)c1-c1ccc(F)cc1` [Example 158, (2E)-N-{4-[(2,6-Dioxo-1-piperidinyl)methyl]phenyl}-3-[5-(4-fluorophenyl)-1-methyl-1H-pyrazol-4-yl]acrylamide] yielded a melting point of 218 to 220 °C.

Molecule `CC(C)c1nccn1Cc1ccc(NC(=O)/C=C/c2cnn(C)c2-c2ccc(F)cc2)cc1` [Example 162, (2E)-3-[5-(4-Fluorophenyl)-1-methyl-1H-pyrazol-4-yl]-N-{4-[(2-isopropyl-1H-imidazol-1-yl)methyl]phenyl}acrylamide] has a melting point of 271 to 272 °C.

In the case of `COC(=O)c1ncnn1Cc1ccc(NC(=O)/C=C/c2cnn(C)c2-c2ccc(F)cc2)cc1` [Example 164, Methyl 1-[4-({(2E)-3-[5-(4-fluorophenyl)-1-methyl-1H-pyrazol-4-yl]prop-2-enoyl}amino)benzyl]-1H-1,2,4-triazole-5-carboxylate], the melting point is reported as 203 to 205 °C.

`CC(=O)c1ccc(NC(=O)/C=C/c2cnn(C)c2-c2ccc(F)cc2)cc1` [Example 165, (2E)-N-(4-Acetylphenyl)-3-[5-(4-fluorophenyl)-1-methyl-1H-pyrazol-4-yl)acrylamide] showed a melting point of 204 to 205 °C.

`CC(=O)Nc1ccc(NC(=O)/C=C/c2cnn(C)c2-c2ccc(F)cc2)cc1` [Example 166, (2E)-N-[4-(Acetylamino)phenyl]-3-[5-(4-fluorophenyl)-1-methyl-1H-pyrazol-4-yl]acrylamide] showed a melting point of 281 to 282 °C.

`Cn1ncc(/C=C/C(=O)Nc2ccc(CCO)cc2)c1-c1ccc(F)cc1` [Example 167, (2E)-3-[5-(4-Fluorophenyl)-1-methyl-1H-pyrazol-4-yl]-N-[4-(2-hydroxyethyl)phenyl]acrylamide] showed a melting point of 198 to 200 °C.

For `Cn1ncc(/C=C/C(=O)Nc2cccc(CO)c2)c1-c1ccc(F)cc1` [Example 169, (2E)-3-[5-(4-Fluorophenyl)-1-methyl-1H-pyrazol-4-yl]-N-[3-(hydroxymethyl)phenyl)acrylamide], the melting point was 130 to 132 °C.

Work on `Cn1ncc(/C=C/C(=O)Nc2ccc(CNC(=O)OC(C)(C)C)cc2)c1-c1ccc(F)cc1` [Example 170, tert-Butyl 4-({(2E)-3-[5-(4-fluorophenyl)-1-methyl-1H-pyrazol-4-yl]prop-2-enoyl]amino)benzylcarbamate] yielded a melting point of 222 to 223 °C.

`CCc1cn(Cc2ccc(NC(=O)/C=C/c3cnn(C)c3-c3ccc(F)cc3)cc2)cn1` [Example 171, (2E)-N-{4-[(4-Ethyl-1H-imidazol-1-yl)methyl]phenyl}-3-[5-(4-fluorophenyl)-1-methyl-1H-pyrazol-4-yl]acrylamide] showed a melting point of 224 to 226 °C.

With `Cc1cc2ncn(Cc3ccc(NC(=O)/C=C/c4cnn(C)c4-c4ccc(F)cc4)cc3)c2cc1C` [Example 172, (2E)-N-(4-[(5,6-Dimethyl-1H-benzimidazol-1-yl)methyl]phenyl}-3-[5-(4-fluorophenyl)-1-methyl-1H-pyrazol-4-yl]acrylamide] the melting point was 279 to 280 °C.

In the case of `Cc1nc2ccccc2n1Cc1ccc(NC(=O)/C=C/c2cnn(C)c2-c2ccc(F)cc2)cc1` [Example 173, (2E)-3-[5-(4-Fluorophenyl)-1-methyl-1H-pyrazol-4-yl]-N-{4-[(2-methyl-1H-benzimidazol-1-yl)methyl]phenyl}acrylamide], the melting point is reported as 263 to 264 °C.

Molecule `Cn1ncc(/C=C/C(=O)Nc2ccc(C(O)c3ccccc3)cc2)c1-c1ccc(F)cc1` (centres unmarked) [Example 174, (2E)-3-[5-(4-Fluorophenyl)-1-methyl-1H-pyrazol-4-yl]-N-{4-[hydroxy(phenyl)methyl]phenyl}acrylamide] has a melting point of 192 to 195 °C.

In the case of `Cn1ncc(/C=C/C(=O)Nc2ccc(Cc3ccccc3)cc2)c1-c1ccc(F)cc1` [Example 175, (2E)-N-(4-Benzylphenyl)-3-[5-(4-fluorophenyl)-1-methyl-1H-pyrazol-4-yl]acrylamide], the melting point is reported as 226 to 227 °C.

With `Cn1ncc(/C=C/C(=O)Nc2ccc(Cn3ncc4ccccc43)cc2)c1-c1ccc(F)cc1` [Example 176, (2E)-3-[5-(4-Fluorophenyl)-1-methyl-1H-pyrazol-4-yl]-N-[4-(1H-indazol-1-ylmethyl)phenyl]acrylamide] the melting point was 146 to 148 °C.

For `Cn1ncc(/C=C/C(=O)Nc2ccc(Cn3nnc4ccccc43)cc2)c1-c1ccc(F)cc1` [Example 177, (2E)-N-[4-(1H-1,2,3-Benzotriazol-1-ylmethyl)phenyl]-3-[5-(4-fluorophenyl)-1-methyl-1H-pyrazol-4-yl]acrylamide], the melting point was 226 to 227 °C.

In the case of `Cn1ncc(/C=C/C(=O)Nc2ccc(Cn3cc4ccccc4n3)cc2)c1-c1ccc(F)cc1` [Example 178, (2E)-3-[5-(4-Fluorophenyl)-1-methyl-1H-pyrazol-4-yl]-N-[4-(2H-indazol-2-ylmethyl)phenyl]acrylamide], the melting point is reported as 231 to 232 °C.

`Cn1ncc(/C=C/C(=O)Nc2ccc(Cn3nc4ccccc4n3)cc2)c1-c1ccc(F)cc1` [Example 179, (2E)-N-[4-(2H-1,2,3-Benzotriazol-2-ylmethyl)phenyl]-3-[5-(4-fluorophenyl)-1-methyl-1H-pyrazol-4-yl]acrylamide] showed a melting point of 222 to 223 °C.

In the case of `CCOC(=O)c1ccc(NC(=O)/C=C/c2cnn(C)c2-c2ccc(F)cc2)cc1` [Example 180, ethyl 4-({(2E)-3-[5-(4-fluorophenyl)-1-methyl-1H-pyrazol-4-yl]prop-2-enoyl}amino)benzoate], the melting point is reported as 202 to 203 °C.

For `Cn1ncc(/C=C/C(=O)Nc2ccc(S(N)(=O)=O)cc2)c1-c1ccc(F)cc1` [Example 181, (2E)-N-[4-(Aminosulfonyl)phenyl]-3-[5-(4-fluorophenyl)-1-methyl-1H-pyrazol-4-yl]acrylamide], the melting point was 300 to 305 °C (dec.).

For `Cn1ncc(/C=C/C(=O)Nc2ccc(C(N)=O)cc2)c1-c1ccc(F)cc1` [Example 183, 4-({(2E)-3-[5-(4-Fluorophenyl)-1-methyl-1H-pyrazol-4-yl]prop-2-enoyl}amino)benzamide], the melting point was 276 to 278 °C.

For `Cn1ncc(/C=C/C(=O)Nc2ccccc2CO)c1-c1ccc(F)cc1` [Example 184, (2E)-3-[5-(4-Fluorophenyl)-1-methyl-1H-pyrazol-4-yl]-N-[2-(hydroxymethyl)phenyl]acrylamide], the melting point was 119 to 120 °C.

Molecule `Cn1ncc(/C=C/C(=O)Nc2ccc(CCn3cccn3)cc2)c1-c1ccc(F)cc1` [Example 186, (2E)-3-[5-(4-Fluorophenyl)-1-methyl-1H-pyrazol-4-yl]-N-{4-[2-(1H-pyrazol-1-yl)ethyl]phenyl}acrylamide] has a melting point of 205 to 206 °C.

`Cn1ncc(/C=C/C(=O)Nc2ccc(CCn3ccnc3)cc2)c1-c1ccc(F)cc1` [Example 187, (2E)-3-{5-(4-Fluorophenyl)-1-methyl-1H-pyrazol-4-yl}-N-{4-[2-(1H-imidazol-1-yl)ethyl]phenyl}acrylamide] showed a melting point of 160 to 162 °C.

`CCOC(=O)CCC(=O)NCc1ccc(NC(=O)/C=C/c2cnn(C)c2-c2ccc(F)cc2)cc1` [Example 188, Ethyl 4-{[4-({(2E)-3-[5-(4-fluorophenyl)-1-methyl-1H-pyrazol-4-yl]prop-2-enoyl}amino)benzyl]amino}-4-oxobutanoate] showed a melting point of 195 to 197 °C.

For `CC(=O)NCc1ccc(NC(=O)/C=C/c2cnn(C)c2-c2ccc(F)cc2)cc1` [Example 189, (2E)-N-{4-[(Acetylamino)methyl]phenyl}-3-[5-(4-fluorophenyl)-1-methyl-1H-pyrazol-4-yl]acrylamide], the melting point was 233 to 234 °C.
